Measurements taken from PubChem BioAssay AID328 (DTP/NCI, 2004).
“And” between values parts separate entries of the source, which are not always exact repeats. Identical values can stand only once. Inconclusive results and toxic doses are left out.

Test system: BDF1 mice, P388 leukemia ip, median survival T/C
Experiment: NCI In Vivo Anticancer Drug Screen. Data for tumor model P388 Leukemia (intraperitoneal) in B6D2F1 (BDF1) mice
Conditions: endpoint: median survival time, higher = longer survival
Procedure: The antitumor activity of compounds was measured in mice bearing transplantable tumors. Survival or tumor size were measured and the results are expressed as the measurement made in the treated group (T) divided by the measurement made in the vehicle treated control group (C). The tumor model used in this assay is P388 Leukemia (intraperitoneal) in B6D2F1 (BDF1) mice

[1] = dose: 25.0 mg/kg/injection, schedule: Q01DX009 (ip), vehicle: saline with Tween-80
[2] = dose: 50.0 mg/kg/injection, schedule: Q01DX009 (ip), vehicle: saline with Tween-80
[3] = dose: 100.0 mg/kg/injection, schedule: Q01DX009 (ip), vehicle: saline with Tween-80
[4] = dose: 200.0 mg/kg/injection, schedule: Q01DX009 (ip), vehicle: saline with Tween-80
[5] = dose: 100.0 mg/kg/injection, schedule: Q04DX003 (ip), vehicle: saline with Tween-80
[6] = dose: 200.0 mg/kg/injection, schedule: Q04DX003 (ip), vehicle: saline with Tween-80
[7] = dose: 400.0 mg/kg/injection, schedule: Q04DX003 (ip), vehicle: saline with Tween-80
[8] = dose: 100.0 mg/kg/injection, schedule: Q01DX001 (ip), vehicle: saline with Tween-80
[9] = dose: 200.0 mg/kg/injection, schedule: Q01DX001 (ip), vehicle: saline with Tween-80
[10] = dose: 400.0 mg/kg/injection, schedule: Q01DX001 (ip), vehicle: saline with Tween-80

SMILES: CN(C)c1nc(NC(=O)NC(=O)c2c(F)cccc2F)nc(N(C)C)n1
- T/C [1]: 88 % of control

SMILES: Cc1c2c(cc3c1[nH]c1ccccc13)C=NCC2
- T/C [2]: 93 % of control
- T/C [3]: 99 % of control
- T/C [4]: 101 % of control

SMILES: CCCCCCCCCCCC(=O)N(C)C
- T/C (dose: 100.0 mg/kg/injection, schedule: Q01DX009 (ip), vehicle: Klucel (hydroxypropylcellulose) (HPC)): 105 % of control
- T/C (dose: 100.0 mg/kg/injection, schedule: Q04DX003 (ip), vehicle: Klucel (hydroxypropylcellulose) (HPC)): 104 % of control
- T/C (dose: 200.0 mg/kg/injection, schedule: Q01DX009 (ip), vehicle: Klucel (hydroxypropylcellulose) (HPC)): 105 % of control
- T/C (dose: 200.0 mg/kg/injection, schedule: Q04DX003 (ip), vehicle: Klucel (hydroxypropylcellulose) (HPC)): 100 % of control
- T/C (dose: 400.0 mg/kg/injection, schedule: Q04DX003 (ip), vehicle: Klucel (hydroxypropylcellulose) (HPC)): 100 % of control

SMILES: O=C(c1ccccc1Cl)n1c2c(c3ccccc31)CCCC2
- T/C [5]: 100 % of control
- T/C [6]: 104 % of control
- T/C [7]: 100 % of control

SMILES: O=C(Nc1ccc(NC(=O)Nc2cccc(C3=NCCCN3)c2)cc1)Nc1ccc(C2=NCCCN2)cc1
- T/C (dose: 6.6 mg/kg/injection, schedule: Q01DX009 (ip), vehicle: saline with Tween-80): 154 % of control
- T/C (dose: 10.0 mg/kg/injection, schedule: Q01DX009 (ip), vehicle: saline with Tween-80): 181 % of control

SMILES: O=C(N[C@H](CO)[C@H](O)c1ccc([N+](=O)[O-])cc1)C(Cl)Cl
- T/C [3]: 118 % of control

SMILES: Cc1c2cc3c(cc2cc2c4cc5c(cc4cc[n+]12)OCO5)OCO3 (tested in a mixture with another compound)
- T/C (dose: 3.0 mg/kg/injection, schedule: Q04DX003 (ip), vehicle: saline): 159 % of control
- T/C (dose: 3.13 mg/kg/injection, schedule: Q01DX009 (ip), vehicle: saline): 98 % of control
- T/C (dose: 5.56 mg/kg/injection, schedule: Q04DX003 (ip), vehicle: saline): 150 % of control and 177 % of control
- T/C (dose: 6.25 mg/kg/injection, schedule: Q01DX009 (ip), vehicle: saline): 89 % of control
- T/C (dose: 6.25 mg/kg/injection, schedule: Q04DX003 (ip), vehicle: saline): 170 % of control
- T/C (dose: 8.33 mg/kg/injection, schedule: Q04DX003 (ip), vehicle: saline): 172 % of control and 200 % of control
- T/C (dose: 12.5 mg/kg/injection, schedule: Q04DX003 (ip), vehicle: saline): 150 % of control and 177 % of control and 190 % of control
- T/C (dose: 18.7 mg/kg/injection, schedule: Q04DX003 (ip), vehicle: saline): 113 % of control
- T/C (dose: 25.0 mg/kg/injection, schedule: Q04DX003 (ip), vehicle: saline): 95 % of control

SMILES: Cn1c(=O)c(S(C)=O)c(O)c2ccccc21 (centres undefined)
- T/C [2]: 118 % of control
- T/C [3]: 100 % of control
- T/C [4]: 112 % of control

SMILES: Cc1cccc2cc3cccc(C)[n+]3cc12
- T/C (dose: 5.0 mg/kg/injection, schedule: Q01DX010 (ip), vehicle: saline): 100 % of control

SMILES: O=C1CSC(C23CC4CC(CC(C4)C2)C3)N1c1nccs1 (centres undefined)
- T/C [2]: 92 % of control
- T/C [3]: 90 % of control

SMILES: C1=CCC(COC(c2ccccc2)(c2ccccc2)c2ccccc2)C(COC(c2ccccc2)(c2ccccc2)c2ccccc2)C1 (centres undefined)
- T/C [8]: 93 % of control
- T/C [9]: 96 % of control
- T/C [10]: 88 % of control

SMILES: Nc1cccnc1
- T/C (dose: 5.0 mg/kg/injection, schedule: Q01DX009 (ip), vehicle: saline): 100 % of control
- T/C (dose: 10.0 mg/kg/injection, schedule: Q01DX009 (ip), vehicle: saline): 110 % of control

SMILES: OC1(c2ccncc2)C=CCC1 (centres undefined)
- T/C (dose: 25.0 mg/kg/injection, schedule: Q04DX002 (ip), vehicle: saline with Tween-80): 100 % of control
- T/C (dose: 50.0 mg/kg/injection, schedule: Q04DX002 (ip), vehicle: saline with Tween-80): 106 % of control
- T/C (dose: 100.0 mg/kg/injection, schedule: Q04DX002 (ip), vehicle: saline with Tween-80): 97 % of control

SMILES: COC(=O)c1cc[nH]c1CC(=O)O
- T/C [8]: 101 % of control
- T/C [9]: 106 % of control
- T/C [10]: 110 % of control

SMILES: COc1cc2c(cc1OC)-c1cc3cc(OC)c(OC)cc3c(CCC(=O)O)[n+]1CC2
- T/C (dose: 75.0 mg/kg/injection, schedule: Q01DX009 (ip), vehicle: Klucel (hydroxypropylcellulose) (HPC)): 101 % of control
- T/C (dose: 150.0 mg/kg/injection, schedule: Q01DX009 (ip), vehicle: Klucel (hydroxypropylcellulose) (HPC)): 101 % of control

SMILES: COc1cc[n+]([O-])cc1/C=C/c1c[n+]([O-])ccc1OC
- T/C (dose: 25.0 mg/kg/injection, schedule: Q04DX003 (ip), vehicle: saline with Tween-80): 94 % of control
- T/C (dose: 50.0 mg/kg/injection, schedule: Q04DX003 (ip), vehicle: saline with Tween-80): 119 % of control
- T/C [5]: 103 % of control
- T/C [6]: 108 % of control

SMILES: COc1ccc2ccccc2c1/C=N/N1CCCCC1
- T/C [5]: 110 % of control
- T/C [6]: 95 % of control
- T/C [7]: 115 % of control

SMILES: CN(C)CCCCc1cn(-c2ccccc2)c2ccccc12
- T/C (dose: 12.5 mg/kg/injection, schedule: Q01DX009 (ip), vehicle: saline): 105 % of control
- T/C (dose: 27.5 mg/kg/injection, schedule: Q01DX001 (ip), vehicle: saline): 100 % of control
- T/C (dose: 33.0 mg/kg/injection, schedule: Q01DX009 (ip), vehicle: saline): 109 % of control
- T/C (dose: 50.0 mg/kg/injection, schedule: Q01DX009 (ip), vehicle: saline): 104 % of control
- T/C (dose: 55.0 mg/kg/injection, schedule: Q01DX001 (ip), vehicle: saline): 108 % of control
- T/C (dose: 110.0 mg/kg/injection, schedule: Q01DX001 (ip), vehicle: saline): 108 % of control

SMILES: CCc1nnc2sc3c(Cl)c4nn5c(CC)nnc5sc4c(Cl)c3nn12
- T/C [2]: 114 % of control
- T/C [3]: 118 % of control
- T/C [4]: 98 % of control

SMILES: COC(=O)C(NC(=O)OCc1ccccc1)C(=O)OC
- T/C [3]: 104 % of control
- T/C [5]: 104 % of control
- T/C [4]: 95 % of control
- T/C [6]: 109 % of control
- T/C (dose: 400.0 mg/kg/injection, schedule: Q01DX009 (ip), vehicle: saline with Tween-80): 95 % of control
- T/C [7]: 100 % of control

SMILES: COc1cc2c(cc1OC)C1C(=CCC3c4cc(OC)c(OC)cc4CC[N+]31C)C=C2 (centres undefined)
- T/C (dose: 6.25 mg/kg/injection, schedule: Q01DX009 (ip), vehicle: saline with Tween-80): 95 % of control
- T/C (dose: 12.5 mg/kg/injection, schedule: Q01DX009 (ip), vehicle: saline with Tween-80): 104 % of control
- T/C [1]: 116 % of control

SMILES: O=C1C=CC(=O)c2c(O)c(CO)c(CO)c(O)c21
- T/C (dose: 0.19 mg/kg/injection, schedule: Q01DX009 (ip), vehicle: water): 100 % of control
- T/C (dose: 0.39 mg/kg/injection, schedule: Q01DX009 (ip), vehicle: water): 108 % of control
- T/C (dose: 0.78 mg/kg/injection, schedule: Q01DX009 (ip), vehicle: water): 115 % of control
- T/C (dose: 1.56 mg/kg/injection, schedule: Q01DX009 (ip), vehicle: water): 102 % of control
- T/C (dose: 3.12 mg/kg/injection, schedule: Q01DX009 (ip), vehicle: water): 108 % of control

SMILES: CCCCN(CCCC)c1ccc(/C=C/c2ccnc3ccccc23)cc1
- T/C (dose: 100.0 mg/kg/injection, schedule: Q01DX009 (sc), vehicle: olive oil, sesame oil, peanut oil): 88 % of control
- T/C (dose: 100.0 mg/kg/injection, schedule: Q04DX003 (sc), vehicle: olive oil, sesame oil, peanut oil): 88 % of control and 95 % of control
- T/C (dose: 200.0 mg/kg/injection, schedule: Q01DX009 (sc), vehicle: olive oil, sesame oil, peanut oil): 88 % of control
- T/C (dose: 200.0 mg/kg/injection, schedule: Q04DX003 (sc), vehicle: olive oil, sesame oil, peanut oil): 92 % of control and 95 % of control
- T/C (dose: 400.0 mg/kg/injection, schedule: Q01DX009 (sc), vehicle: olive oil, sesame oil, peanut oil): 92 % of control
- T/C (dose: 400.0 mg/kg/injection, schedule: Q04DX003 (sc), vehicle: olive oil, sesame oil, peanut oil): 92 % of control and 95 % of control
